US10206979B2, “Treatment agent for cognitive impairment induced by amyloid beta-protein, therapeutic agent for alzheimer's disease, and treatment method and pathological analysis method related to these” (NATIONAL UNIVERSITY CORPORATION OKAYAMA UNIVERSITY, priority 2013, dated 2019)
No end group written: not given here.

Experiments:
[1] = tested on: memory disorder induced by amyloid β protein oligomer; assay: novel object recognition test in mouse model of memory disorder by administration of the amyloid β protein oligomer; type: in vivo, ICR mice; settings: for ability to remember (exploration time for novel object vs familiar object): 1 μM amyloid β protein oligomer + 10 μM peptide in artificial cerebrospinal fluid, 3.5 μl/side to lateral ventricles, test session 24 h after training, paired t-test
Description: Preparation of a mouse model of memory disorder by administration of the amyloid β protein oligomer, and evaluation of the ability of memory acquisition by a novel object recognition test were carried out according to an earlier paper (Balducci et al., Proc Natl Acad Sci USA 107, 2295-2300, 2010).
ICR mice (6 to 7 weeks old) were anesthetized with ketamine (100 mg/kg) and xylazine (40 mg/kg), and each mouse was fixed on a brain stereotaxic apparatus. After removal of the scalp, small holes were made on the skull on the lateral ventricles, and guide cannulae (23 gage) were bilaterally embedded at the positions of ±1.0 mm lateral and 0.65 mm posterior to the bregma. The guide cannulae were fixed with a dental resin. After a period of four to five days for recovery from the surgery, each mouse was allowed to move freely for 10 minutes in order to allow acclimatization to the environment in a test cage (39 cm×22 cm) (habituation). This was continued for 3 days. On the next day, an artificial cerebrospinal fluid (control), artificial cerebrospinal fluid in Which 1 μM amyloid β protein oligomer is dissolved, or artificial cerebrospinal fluid in which 1 μM amyloid β protein oligomer and 10 μM p3-Alcβ37 peptide or a partial peptide thereof are dissolved, was bilaterally administered (3.5 μl/side) to the lateral ventricles through the guide cannulae embedded in the head, using an injection cannulae (30 gage, 1.7 mm from the brain surface).
Two hours after the administration, two identical objects (glass vials each having a plastic cap [objects A]: 3-cm diameter×6.5-cm height) were placed in the test cage for which the habituation had been carried out, such that the objects were positioned about 20 cm distant from each other. In the test cage, each mouse was allowed to move freely for 10 minutes to allow learning of the object A (training session). On the next day, 24 hours after the learning, a test was carried out to investigate if the mouse remembered the object A, which was presented on the previous day (test session). More specifically, in the same test cage, the object A presented on the previous day (that is, a familiar object) and a novel object (a metal cube [object B]: 4 cm×4 cm×4 cm) were placed at the same positions as those used on the previous day, and the mouse was allowed to move freely for 10 minutes in the test cage. In normal mice, since they naturally show interest in novel objects, the time for exploring the novel object (object B) is longer than the time for exploring the familiar object (object A). […] The exploratory behavior for each object was recorded using a video camera, and the total exploration time for each object was calculated. The time spent for contacting or approach of the head to the object (including sniffing), and contacting of a forelimb or hindlimb with the object was included in the exploration time. The ability of memory acquisition of the mice in each group was represented using the discrimination index. The discrimination index was defined as follows: ([exploration time for novel object]−[exploration time for familiar object ])/([exploration time for novel object]+[exploration time for familiar object]). In cases where discrimination between the novel object and the familiar object is impossible, the discrimination index is 0, while in cases where the exploration time for the novel object is longer than the exploration time for the familiar object, the discrimination index is positive. […] Therefore, the calculation of the exploration time and the discrimination index was carried out based on the behavior observed during the first 5 minutes after the placement of the mouse in the test cage.
In terms of the reagents used, the composition of the artificial cerebrospinal fluid was as follows: 137 mM NaCl, 3 mM KCl, 1 mM MgCl2, 1.2 mM CaCl2, 2.5 mM glucose, and 2 mM sodium phosphate buffer (pH 7.4). […]

[2] = tested on: memory disorder induced by MK-801 (NMDA receptor-dependent memory disorder); assay: novel object recognition test in mouse model of memory disorder prepared by administration of NMDA receptor inhibitor MK-801; type: in vivo, ICR mice; settings: 10 μM peptide to cerebral ventricle; (+)-MK-801 maleate 2 mg/kg intraperitoneally; paired t-test, P>0.05
Description: ICR mice (6 to 7 weeks old) were anesthetized with ketamine (100 mg/kg) and xylazine (40 mg/kg), and each mouse was fixed on a brain stereotaxic apparatus. After removal of the scalp, small holes were made on the skull on the lateral ventricles, and guide cannulae (23 gage) were bilaterally embedded at the positions of ±1.0 mm lateral and 0.65 mm posterior to the bregma. The guide cannulae were fixed with a dental resin. After a period of four to five days for recovery from the surgery, each mouse was allowed to move freely for 10 minutes in order to allow acclimatization to the environment in a test cage (39 cm×22 cm) (habituation). This was continued for 3 days. […]
Two hours after the administration, two identical objects (glass vials each having a plastic cap [objects A]: 3-cm diameter×6.5-cm height) were placed in the test cage for which the habituation had been carried out, such that the objects were positioned about 20 cm distant from each other. […] The exploratory behavior for each object was recorded using a video camera, and the total exploration time for each object was calculated. […]

## GHSLASSHRNSMIPSAAT (a part of p3-Alc beta 37 (position 20-37)) [p3-Alcβ37 [20-37], partial peptide corresponding to positions 20 to 37 of p3-Alcβ37]
[1]
  ability to remember (exploration time for novel object vs familiar object): no recovery of the ability to remember

## HRGHQPPPEMA (a part of p3-Alc beta 37 (position 9-19)) [p3-Alcβ37[9-19], partial peptide corresponding to positions 9 to 19 of p3-Alcβ37 (11 amino acids)]
[1]
  ability to remember (exploration time for novel object vs familiar object): ability to remember showed remarkable recovery

## VLSSQQFLHRG (a part of p3-Alc beta 37 (position 1-11)) [p3-Alcβ37[1-11], partial peptide corresponding to positions 1 to 11 of p3-Alcβ37]
[1]
  ability to remember (exploration time for novel object vs familiar object): ability to remember remained impaired

## VLSSQQFLHRGHOPPPEMA (VLSSQQFLHRGHQPPPEMA; not fully specified) [p3-Alcβ37 [1-19], partial peptide corresponding to positions 1 to 19 of p3-Alcβ37]
[1]
  ability to remember (exploration time for novel object vs familiar object): remarkable recovery of the ability to remember

## VLSSQQFLHRGHQPPPEMAGHSLASSHRNSMIPSAAT (listed as Homo sapiens) [p3-Alcβ37, peptide composed of 37 amino acids produced by cleavage of Alcadein-β by γ-secretase and α-secretase]
[1]
  ability to remember (exploration time for novel object vs familiar object): remarkable recovery of the ability to remember
[1]; 1 μM oligomer + 10 μM peptide, lateral ventricles, Tukey test, P<0.01
  discrimination index relative to the group in which the oligomer was administered: significant increase in the discrimination index
[1]; 1 μM oligomer + 10 μM peptide, lateral ventricles, Tukey test, P>0.05
  discrimination index relative to the group in which the artificial cerebrospinal fluid was administered: No significant difference in the discrimination index
[2]
  effect to ameliorate memory disorder (exploration time for novel object vs familiar object): effect to ameliorate memory disorder was not found
